Publication PMC9374667 (Communications Biology, 2022)
“And” between values parts separate entries of the source, which are not always exact repeats. Equal values may be shown once.

How the values were obtained:
TBK1 [1] = experiment: RT-qPCR of Tbk1 in eWAT and BAT; type: in vivo; details: db/db mice, both doses of BJ
Description: (§1) Total RNA was isolated from 3T3-L1 cells and adipose tissue homogenates using Trizol reagent (Invitrogen, Carlsbad, CA, USA). RNA concentration and purity were examined at 260/280 nm using a nanodrop spectrophotometer (NanoDrop One, Thermo Fisher Scientific, USA). The total RNA was reverse transcribed to cDNA using the EasyScript All-in-One First-Strand cDNA Synthesis SuperMix for qPCR kit (TransGen Biotech, Beijing, China). The quantitative reverse transcription polymerase chain reaction was performed using TransStart Top Green qPCR SuperMix (TransGen Biotech, Beijing, China) and an Applied Biosystems 7500 RealTime PCR System (Life Technologies, USA). Relative expression levels were normalized to gapdh expression and quantified using the 2^-ΔΔCt method. The primers were synthesized by Shanghai Sangon Biotech, and the detailed primer sequences were shown in Supplementary Table 5 in the supplementary materials.

cAMP, glycerol release = experiment: cAMP levels and glycerol release in TNF-α induced 3T3-L1 adipocytes (isoproterenol); type: cell-based, Murine
Procedure: The epididymal adipose tissue was dissected, the fresh adipose tissue was weighed and rapidly rinsed with PBS. The adipose tissue was cut and incubated with isoproterenol (10 μM) for 2 h, and homogenized in a cold cleavage buffer to prepare the adipose tissue homogenate. Then the homogenate was centrifuged at 12,000 × g at 4 °C for 15 min, and the supernatant was collected. […] Then the cells were lysed in a petri dish, scraped off, and centrifuged at 12,000 × g at 4 °C for 15 min before the supernatant was collected. […] And concentrations were further standardized according to protein concentration.

TBK1 [2] = target: T1, TBK1 (Mus musculus, UniProt Q9WUN2); experiment: 3T3-L1 adipocytes transfected with TBK1 plasmid (western blotting, immunofluorescence); type: cell-based, Murine; parameters: host or cells: differentiated 3T3-L1 adipocytes (Lipofectamine 2000); TBK1 (western blotting, Figure 8a) / p-TBK1 (western blotting, Figure 8b) / p-AMPKα (western blotting, Figure 8c) / UCP1 (western blotting, Figure 8d): scale not given here; details: for Mean Intensity: 2μg TBK1 + 10μM BJ, individual replicates
T1 sequence (Q9WUN2 1-729): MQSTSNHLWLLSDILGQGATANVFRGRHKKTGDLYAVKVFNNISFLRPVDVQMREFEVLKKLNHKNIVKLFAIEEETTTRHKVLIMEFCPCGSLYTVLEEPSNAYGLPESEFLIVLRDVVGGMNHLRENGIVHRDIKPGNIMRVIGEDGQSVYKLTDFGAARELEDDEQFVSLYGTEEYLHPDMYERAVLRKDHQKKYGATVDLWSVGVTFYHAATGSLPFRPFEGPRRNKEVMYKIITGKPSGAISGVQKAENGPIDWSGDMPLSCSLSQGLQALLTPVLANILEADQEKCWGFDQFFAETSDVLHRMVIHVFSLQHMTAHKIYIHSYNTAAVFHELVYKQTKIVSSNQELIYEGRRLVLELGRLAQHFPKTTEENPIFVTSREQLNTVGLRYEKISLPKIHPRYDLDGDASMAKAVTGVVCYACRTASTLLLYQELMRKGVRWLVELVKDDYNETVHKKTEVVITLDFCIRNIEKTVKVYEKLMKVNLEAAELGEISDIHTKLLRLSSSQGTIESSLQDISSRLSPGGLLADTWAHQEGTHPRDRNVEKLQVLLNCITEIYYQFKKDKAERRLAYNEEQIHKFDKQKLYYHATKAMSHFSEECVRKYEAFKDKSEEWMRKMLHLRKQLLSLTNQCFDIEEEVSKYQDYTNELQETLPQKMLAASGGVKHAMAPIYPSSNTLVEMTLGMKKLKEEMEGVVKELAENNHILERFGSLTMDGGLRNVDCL
Procedure: […] The 3T3-L1 adipocytes were washed with PBS for 3 times, fixed with 4% paraformaldehyde solution for 30 min, and then washed again for 3 times. […] The cells were then incubated overnight at 4 °C with the appropriate primary antibodies (1:100 dilution). The next day, the 3T3-L1 adipocytes were washed and incubated at room temperature with goat anti-rabbit secondary antibody or goat anti-mouse secondary antibody (1:1000 dilution) for 2 h and washed with PBS for 3 times. The nuclei were stained with DAPI. […] Fluorescence images were taken using a laser confocal microscope (SP8, Leica, Germany). At least four images per section were acquired for quantification, and the mean intensity were evaluated using ImageJ. The adipose tissue or 3T3-L1 adipocytes were homogenized by ultrasound in an ice-cold RIPA lysis buffer containing 1% PMSF and centrifuged at 12,000 × g at 4°C for 15 min to collect the supernatant. The BCA protein assay kit (Beyotime, Shanghai, China) was used to detect the total protein concentration. Proteins (20-30 μg) of the sample were separated by 10% SDS-PAGE gel and transferred onto polyvinylidene difluoride (PVDF) membranes. Then the PVDF membranes were blocked in 5% skim milk powder in TBS containing 1% Tween-20 (TBST) for 2 h at room temperature and washed with TBST for 3 times. […] After washing, the membranes were incubated with horseradish peroxidase-conjugated secondary antibodies (in 5% skim milk powder) for 1 h at room temperature. Finally, the membranes were treated with enhanced chemiluminescence agents (Tanon, Shanghai, China) and the signals were monitored using the Tanon 5200 multi chemiluminescent imaging system (Tanon, Shanghai, China).

[3] = tested on: TNF-α, IL-6, MCP-1, F4/80 (Adgre1), CD11c (Itgax); experiment: qRT-PCR of inflammatory related genes and macrophage marker genes in eWAT; type: in vivo, mice; parameters: key to Tnf-α / IL-6 / Ccl2 / Adgre1 / Itgax: relative expression normalized to gapdh, 2^-ΔΔCt method
Description: as §1

[4] = 3T3-L1 adipocytes transfected with TBK1 plasmid, 10 μM BJ, vs TBK1 transfection
[5] = Figure 5g, BBR 150mg/kg, replicates, first Veh value = 1

CC(C)Cc1ccc(C(C)C(=O)[O-])cc1.COc1ccc2cc3[n+](cc2c1OC)CCc1cc2c(cc1-3)OCO2.O.O.O.O [BJ, berberine-ibuprofen]
Tbk1 mRNA expression in BAT (TBK1 [1]): had no effect | mRNA level of TBK1 (Tbk1) in eWAT (TBK1 [1]): significantly reduced | Glycerol release in differentiated 3T3-L1 adipocytes induced by TNF-α (cAMP, glycerol release; BJ): 92.8546 µmol/L and 97.0733 µmol/L and 93.6983 µmol/L | cAMP levels in differentiated 3T3-L1 adipocytes induced by TNF-α (cAMP, glycerol release; BJ): 0.2237 pmol/mg protein and 0.2235 pmol/mg protein and 0.2307 pmol/mg protein | Glycerol release in differentiated 3T3-L1 adipocytes induced by TNF-α (cAMP, glycerol release; BJ+TNF-α(50ng/ml)): 63.3237 µmol/L and 59.9487 µmol/L and 58.2612 µmol/L | cAMP levels in differentiated 3T3-L1 adipocytes induced by TNF-α (cAMP, glycerol release; BJ+TNF-α(50ng/ml)): 0.1653 pmol/mg protein and 0.1544 pmol/mg protein and 0.1605 pmol/mg protein | Glycerol release in differentiated 3T3-L1 adipocytes induced by TNF-α (cAMP, glycerol release; ISO+BJ): 186.51 µmol/L and 191.572 µmol/L and 183.135 µmol/L | cAMP levels in differentiated 3T3-L1 adipocytes induced by TNF-α (cAMP, glycerol release; ISO+BJ): 0.3839 pmol/mg protein and 0.37 pmol/mg protein and 0.3787 pmol/mg protein | Glycerol release in differentiated 3T3-L1 adipocytes induced by TNF-α (cAMP, glycerol release; ISO+BJ+TNF-α(50ng/ml)): 167.104 µmol/L and 166.26 µmol/L | cAMP levels in differentiated 3T3-L1 adipocytes induced by TNF-α (cAMP, glycerol release; ISO+BJ+TNF-α(50ng/ml)): 0.248 pmol/mg protein and 0.2422 pmol/mg protein and 0.2461 pmol/mg protein | Glycerol release and cAMP levels (cAMP, glycerol release; TNF-α induced 3T3-L1 adipocytes, BJ pretreatment, isoproterenol stimulation): promoted glycerol release, increased cAMP levels | TBK1 (western blotting, Figure 8a) (TBK1 [2]; 2μg TBK1+10μM BJ): 0.5408 and 0.448 and 0.5761 | UCP1 (western blotting, Figure 8d) (TBK1 [2]; 2μg TBK1+10μM BJ): 0.7389 and 0.5561 and 0.5877 | p-AMPKα (western blotting, Figure 8c) (TBK1 [2]; 2μg TBK1+10μM BJ): 0.3928 and 0.3723 and 0.348 | p-TBK1 (western blotting, Figure 8b) (TBK1 [2]; 2μg TBK1+10μM BJ): 0.5922 and 0.4 and 0.4766 | TBK1 (western blotting, Figure 8a) (TBK1 [2]; 10μM BJ): 0.38 and 0.387 and 0.3646 | UCP1 (western blotting, Figure 8d) (TBK1 [2]; 10μM BJ): 0.5655 and 0.6018 and 0.6331 | p-AMPKα (western blotting, Figure 8c) (TBK1 [2]; 10μM BJ): 0.4524 and 0.4108 and 0.3523 | p-TBK1 (western blotting, Figure 8b) (TBK1 [2]; 10μM BJ): 0.5028 and 0.4045 and 0.6995 | Phosphorylation of TBK1 at Ser172 (TBK1 [2]; 3T3-L1 adipocytes transfected with TBK1 plasmid, 10 μM BJ): increased the phosphorylation of TBK1 at Ser172 | Phosphorylation of AMPKα Thr172 and UCP1 protein levels (TBK1 [2]; [4]): increased the phosphorylation of AMPKα Thr172 and increased the UCP1 protein levels | TBK1 protein levels (TBK1 [2]; [4]): markedly reduced the TBK1 protein levels | Mean Intensity (TBK1 [2]; Figure S11c): 20.873 A.U. and 18.04 A.U. and 17.203 A.U. and 19.263 A.U. and 18.463 A.U. and 18.776 A.U. and 23.056 A.U. and 11.015 A.U. and 23.907 A.U. and 21.41 A.U. and 21.836 A.U. and 20.009 A.U. | Mean Intensity (TBK1 [2]; Figure S11g): 11.659 A.U. and 7.08 A.U. and 13.692 A.U. and 12.377 A.U. and 10.165 A.U. and 17.942 A.U. and 13.51 A.U. and 14.616 A.U. and 14.87 A.U. and 10.529 A.U. and 9.155 A.U. and 10.462 A.U. | Mean Intensity (TBK1 [2]; Figure S11d): 20.305 A.U. and 17.417 A.U. and 18.699 A.U. and 21.221 A.U. and 16.857 A.U. and 15.382 A.U. and 18.398 A.U. and 14.495 A.U. and 16.691 A.U. and 21.635 A.U. and 11.895 A.U. and 12.802 A.U. | Mean Intensity (TBK1 [2]; sheet Figure S11h): 18.036 A.U. and 17.064 A.U. and 12.941 A.U. and 17.572 A.U. and 15.135 A.U. and 12.981 A.U. and 16.45 A.U. and 12.776 A.U. and 13.679 A.U. and 13.503 A.U. and 12.749 A.U. and 17.882 A.U.

COc1ccc2cc3[n+](cc2c1OC)CCc1cc2c(cc1-3)OCO2 [BBR, Berberine chloride dihydrate]
Adgre1 [3, 5]: 0.3 and 0.2426 and 0.368 | Ccl2 [3, 5]: 0.8769 and 0.7967 and 0.7737 | IL-6 [3, 5]: 0.5766 and 0.5775 and 0.5396 | Itgax [3, 5]: 0.806 and 0.855 and 0.8182 | Tnf-α [3, 5]: 0.6975 and 0.7551 and 0.7391 | mRNA levels of TNF-α, IL-6, MCP-1, F4/80 (Adgre1) and CD11c (Itgax) in eWAT ([3]; db/db mice, 5 weeks of treatment, vs vehicle): reduced the mRNA levels
